The assay has as its target T1, human TAS1R2-WT/TAS1R3-G367C (Homo sapiens, UniProt Q7RTX0+Q8TE23, G367C).
T1 construct: expressed in transfected cells; host or cells: HEK293T stably expressing Gα16gust44
T1 sequence (Q8TE23 20-839): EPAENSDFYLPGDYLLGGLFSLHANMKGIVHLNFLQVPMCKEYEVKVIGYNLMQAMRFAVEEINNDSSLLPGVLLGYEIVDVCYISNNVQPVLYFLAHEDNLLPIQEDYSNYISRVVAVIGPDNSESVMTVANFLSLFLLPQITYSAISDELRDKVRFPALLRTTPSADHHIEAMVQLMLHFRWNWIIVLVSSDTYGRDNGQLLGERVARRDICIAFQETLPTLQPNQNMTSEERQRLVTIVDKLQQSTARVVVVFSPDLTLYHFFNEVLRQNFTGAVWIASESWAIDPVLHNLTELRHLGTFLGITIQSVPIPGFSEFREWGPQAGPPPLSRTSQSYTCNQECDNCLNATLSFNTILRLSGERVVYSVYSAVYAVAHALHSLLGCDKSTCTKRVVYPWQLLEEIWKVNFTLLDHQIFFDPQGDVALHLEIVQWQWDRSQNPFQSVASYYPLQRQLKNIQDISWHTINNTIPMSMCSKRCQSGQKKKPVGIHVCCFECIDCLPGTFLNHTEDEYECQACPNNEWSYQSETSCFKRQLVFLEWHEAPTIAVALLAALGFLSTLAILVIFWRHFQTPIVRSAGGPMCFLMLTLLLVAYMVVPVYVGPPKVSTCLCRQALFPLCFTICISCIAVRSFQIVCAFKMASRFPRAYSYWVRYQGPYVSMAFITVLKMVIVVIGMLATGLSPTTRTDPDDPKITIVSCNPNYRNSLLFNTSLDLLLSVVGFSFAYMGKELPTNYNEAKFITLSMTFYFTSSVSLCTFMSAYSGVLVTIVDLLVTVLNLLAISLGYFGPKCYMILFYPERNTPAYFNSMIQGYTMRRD
T1 sequence (Q7RTX0 21-852 G367C): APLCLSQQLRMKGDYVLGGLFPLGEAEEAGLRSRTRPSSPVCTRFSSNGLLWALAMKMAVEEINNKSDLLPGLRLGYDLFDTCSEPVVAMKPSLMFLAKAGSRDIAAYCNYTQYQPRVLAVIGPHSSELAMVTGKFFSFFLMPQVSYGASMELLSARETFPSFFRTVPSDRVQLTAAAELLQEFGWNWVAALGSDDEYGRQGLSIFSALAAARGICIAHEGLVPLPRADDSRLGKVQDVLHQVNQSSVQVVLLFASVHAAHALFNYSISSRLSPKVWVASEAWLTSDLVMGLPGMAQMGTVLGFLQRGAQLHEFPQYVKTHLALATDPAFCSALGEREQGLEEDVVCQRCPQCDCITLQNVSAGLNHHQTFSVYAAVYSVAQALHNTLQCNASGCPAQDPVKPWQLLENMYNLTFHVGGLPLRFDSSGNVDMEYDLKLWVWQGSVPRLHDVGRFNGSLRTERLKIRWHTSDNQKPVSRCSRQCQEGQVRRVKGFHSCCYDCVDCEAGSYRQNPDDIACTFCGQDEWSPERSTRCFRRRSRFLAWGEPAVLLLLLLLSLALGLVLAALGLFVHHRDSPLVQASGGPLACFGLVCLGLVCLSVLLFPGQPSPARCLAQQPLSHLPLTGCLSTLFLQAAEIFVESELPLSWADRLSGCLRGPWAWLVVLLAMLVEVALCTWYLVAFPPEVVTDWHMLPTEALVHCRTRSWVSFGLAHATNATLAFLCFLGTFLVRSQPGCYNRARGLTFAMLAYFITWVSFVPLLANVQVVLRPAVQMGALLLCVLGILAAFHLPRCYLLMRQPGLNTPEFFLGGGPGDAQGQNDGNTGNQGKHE
Kind of assay: Calcium mobilisation assay, TAS1R2-WT with TAS1R3 variant G367C. It is filed as cell-based. Particulars: for Max ΔF/F0: maximal signal amplitude. The text has this: The coding sequences for TAS1R2 and TAS1R3 were commercially synthesised, and the human codon was optimised for expression in human cells. The coding sequences of human TAS1R2 and TAS1R3 were subcloned and inserted into the mammalian expression vectors pcDNA6/myc-HisA and pcDNA4/myc-HisA (Invitrogen; Thermo Fisher Scientific; Illkirch, France) between the EcoRI and NotI restriction sites, generating the plasmids pcDNA6-TAS1R2 and pcDNA4-TAS1R3, respectively. To increase protein expression in mammalian cells, an upstream start codon was used, which was a sequence called MAX, corresponding to the QBI SP163 element also described in pcDNA4-HisMax (Invitrogen; Thermo Fisher Scientific; Illkirch, France). To measure the expression level of the receptor by immunohistochemistry, we used the FLAG sequence ([…]) in the C-terminal position, which encodes the FLAG tag epitope. SNP variants of TAS1R2 and TAS1R3 were constructed based on […], respectively, using site-directed mutagenesis (Genewiz; Leipzig, Germany).
The HEK293T cells were kindly provided by Jay P. Slack (Givaudan Flavors Corporation; Cincinnati, OH, USA). HEK293T cells stably transfected with Gα16gust44 [43, 67] were seeded in poly-D-lysine-coated clear-bottom black 96-well plates (0.35 × 10^5 cells/well) in high-glucose DMEM supplemented with 2 mM GlutaMAX, 10% dialysed foetal bovine serum with penicillin/streptomycin and G418 (400 μg/mL) at 37 °C and 6.3% CO2 in a humidified atmosphere as previously reported. […] As a negative control, HEK293T cells were mock-transfected with the empty expression vector. After a further 24 h of incubation, the HEK293T cells were washed with C1 buffer (130 mM NaCl, 5 mM KCl, 10 mM HEPES pH 7.4 and 2 mM CaCl2). The 96-well plates containing the cells were then stimulated with sweet-tasting compounds. […] Different concentration ranges were tested depending on the sweet compound injected. The Ca^2+ changes were expressed as fractional changes in fluorescent light intensity: ΔF/F = (F − F0)/F0, where F was the fluorescent light intensity at each point, and F0 was the value of emitted fluorescent light prior to stimulus application. To calculate dose–response relationships, the changes in fluorescence upon stimulus application were averaged, mock-subtracted and baseline-corrected. The dose–response data obtained were adjusted using a 4-parameter logistic equation. The half-maximal effective concentrations (EC50 values) and maximal signal amplitudes were calculated using SigmaPlot software (version 15.0) (Systat Software; San Jose, CA, USA).
For in vitro calcium mobilisation assay performed on hTAS1R2-SNPs, hTAS1R3-SNPs and mTAS1R3-I60T, 6 to 7 concentrations were tested for each sweet compound, plus buffer alone. All concentration–receptor combinations were measured in duplicate, and each experiment was repeated at least 4 times (8 wells/concentration). Results were expressed for each concentration as ΔF/F mean ± SEM and represented as dose–response curves.
Background: A change in cytosolic calcium serves as a functional read-out for many receptors and channels.

Where two headings read alike, the source gives them in different places. No end group written: not given here.

In general, EC50 refers to the midpoint of the concentration-response curve. Consider `OC[C@H]1O[C@H](O[C@]2(CCl)O[C@H](CCl)[C@@H](O)[C@@H]2O)[C@H](O)[C@@H](O)[C@H]1Cl` [Sucralose], for which the “R1 = Variant EC50/WT EC50” value is listed as 1.7 and the “Max ΔF/F0” value is recorded as 0.32 ± 0.01. Moreover, the EC50 (read-out: EC50) came to 182 ± 7 µM.
On to `C[C@H](CC[C@@H](O[C@@H]1O[C@H](CO[C@@H]2O[C@H](CO)[C@@H](O)[C@H](O)[C@H]2O)[C@@H](O)[C@H](O)[C@H]1O[C@@H]1O[C@H](CO)[C@@H](O)[C@H](O)[C@H]1O)C(C)(C)O)[C@H]1CC[C@@]2(C)[C@@H]3CC=C4[C@@H](CC[C@H](O[C@@H]5O[C@H](CO[C@@H]6O[C@H](CO)[C@@H](O)[C@H](O)[C@H]6O)[C@@H](O)[C@H](O)[C@H]5O)C4(C)C)[C@]3(C)[C@H](O)C[C@]12C` [Mogroside V, mogroside V], for which the “R1 = Variant EC50/WT EC50” value worked out at 2.6 and the “Max ΔF/F0” value worked out at 0.60 ± 0.02. The EC50 (read-out: EC50) came to 82.4 ± 5.2 µM.
For `COC(=O)[C@H](Cc1ccccc1)NC(=O)[C@H](CC(=O)O)NCCC(C)(C)C` [Neotame], the “R1 = Variant EC50/WT EC50” value came out at 1.6 and the “Max ΔF/F0” value was found to be 0.31 ± 0.01. In addition, the EC50 (read-out: EC50) was 1.95 ± 0.09 µM.
“brazzein (QDKCKKVYENYPVSKCQLANQCNYDCKLDKHARSGECFYDEKRNLQCICDYCEY; ends and bridges not checked; cysteine pairing not given here; UniProt P56552 1-54, looked up) [sweet-tasting protein obtained by recombinant production using the yeast Pichia pastoris]”: the “R1 = Variant EC50/WT EC50” value stood at 1.6 and the “Max ΔF/F0” value is reported as 0.72 ± 0.01. Moreover, under “brazzein”, the EC50 stood at 181.7 ± 6.9 µg/mL.
For the molecule `C=C(C)[C@@H]1CC=C(/C=N/O)CC1` [Perillartine, perillartine], the “R1 = Variant EC50/WT EC50” value came out at 2.3 and the “Max ΔF/F0” value is given as 1.49 ± 0.24. The EC50 (read-out: EC50) came to 32 ± 17.1 µM.
The matching figures for `CC1=CC(=O)NS(=O)(=O)O1` [Acesulfame K, acesulfame K]: 0.7, 0.06 ± 0.01 and 443 ± 121 µM.
In the case of `C=C1C[C@@]23CC[C@H]4[C@@](C)(CCC[C@@]4(C)C(=O)O[C@@H]4O[C@H](CO)[C@@H](O)[C@H](O[C@@H]5O[C@H](CO)[C@@H](O)[C@H](O)[C@H]5O)[C@H]4O[C@@H]4O[C@H](CO)[C@@H](O)[C@H](O)[C@H]4O)[C@@H]2CC[C@]1(O[C@@H]1O[C@H](CO)[C@@H](O)[C@H](O[C@@H]2O[C@H](CO)[C@@H](O)[C@H](O)[C@H]2O)[C@H]1O[C@@H]1O[C@H](CO)[C@@H](O)[C@H](O)[C@H]1O)C3` [Rebaudioside M, rebaudioside M], the “R1 = Variant EC50/WT EC50” value was determined as 1.2 and the “Max ΔF/F0” value worked out at 0.35 ± 0.01. Moreover, the concentration for a half-maximal effect (EC50) (read-out: EC50) was 47.3 ± 1.9 µM.
Consider `O=S(=O)(O)NC1CCCCC1` [Cyclamate, cyclamate], for which the concentration for a half-maximal effect (EC50) (read-out: EC50) was determined as 2120 ± 34 µM.
With `COc1ccc(CCC(=O)c2c(O)cc(O[C@@H]3O[C@H](CO)[C@@H](O)[C@H](O)[C@H]3O[C@@H]3O[C@@H](C)[C@H](O)[C@@H](O)[C@H]3O)cc2O)cc1O` [NHDC, neohesperidin dihydrochalcone], the “R1 = Variant EC50/WT EC50” value was 1.6 and the “Max ΔF/F0” value came out at 0.75 ± 0.05. For the same molecule, the EC50 (read-out: EC50) came to 81.3 ± 13.1 µM.
Consider thaumatin, for which the “R1 = Variant EC50/WT EC50” value stood at 1.4 and the “Max ΔF/F0” value stood at 0.52 ± 0.01.

B1: thaumatin (protein)
chain: ATFEIVNRCSYTVWAAASKGDAALDAGGRQLNSGESWTINVEPGTKGGKIWARTDCYFDDSGSGICKTGDCGGLLRCKRFGRPPTTLAEFSLNQYGKDYIDISNIKGFNVPMDFSPTTRGCRGVRCAADIVGQCPAKLKAPGGGCNDACTVFQTSEYCCTTGKCGPTEYSRFFKRLCPDAFSYVLDKPTTVTCPGSSNYRVTFCPTA
modifications: Eight disulfides
notes: sweet-tasting plant protein, E957
On to B1, for which the EC50 (read-out: EC50) stood at 14.8 ± 0.5 µM.

Source of the values: publication PMC11945486, “TAS1R2/TAS1R3 Single-Nucleotide Polymorphisms Affect Sweet Taste Receptor Activation by Sweeteners: The SWEET Project” (Nutrients, 2025).
